In the oligonucleotide strings, read from the 5' end, every base follows the letter of its sugar. An asterisk marks phosphorothioate; unmarked linkages are phosphodiester. Other units and linkages are bracketed, terminal groups are in braces. A string of capitals states the bases alone. d = 2'-deoxy (DNA); r = 2'-OH (RNA)
Test system: PCSK9 mRNA
Assay: PCSK9 siRNA screening in HepG2 cells (lipofectamine 2000 transfection, PCSK9 mRNA by Quantigene, normalized to GAP-DH)
Assay type: cell-based, human
Conditions: for Mean percent remaining mRNA transcript at siRNA concentration/in cell type 30 nM/HepG2: 30 nM siRNA; for Mean percent remaining mRNA transcript at siRNA concentration/in cell type 100 nM/HepG2: 100 nM siRNA; for Mean percent remaining mRNA transcript at siRNA concentration/in cell type 3 nM/HepG2: 3 nM siRNA
Procedure: HuH-7 cells were obtained from JCRB Cell Bank (Japanese Collection of Research Bioresources) (Shinjuku, Japan, cat. No.: JCRB0403) Cells were cultured in Dulbecco's MEM (Biochrom AG, Berlin, Germany, cat. No. F0435) supplemented to contain 10% fetal calf serum (FCS) (Biochrom AG, Berlin, Germany, cat. No. S0115), Penicillin 100 U/ml, Streptomycin 100 μg/ml (Biochrom AG, Berlin, Germany, cat. No. A2213) and 2 mM L-Glutamin (Biochrom AG, Berlin, Germany, cat. No K0282) at 37° C. in an atmosphere with 5% CO2 in a humidified incubator (Heraeus HERAcell, Kendro Laboratory Products, Langenselbold, Germany) HepG2 and HeLa cells were obtained from American Type Culture Collection (Rockville, Md., cat. No. HB-8065) and cultured in MEM (Gibco Invitrogen, Karlsruhe, Germany, cat. No. 21090-022) supplemented to contain 10% fetal calf serum (FCS) (Biochrom AG, Berlin, Germany, cat. No. S0115), Penicillin 100 U/ml, Streptomycin 100 μg/ml (Biochrom AG, Berlin, Germany, cat. No. A2213), 1× Non Essential Amino Acids (Biochrom AG, Berlin, Germany, cat. No. K-0293), and 1 mM Sodium Pyruvate (Biochrom AG, Berlin, Germany, cat. No. L-0473) at 37° C. in an atmosphere with 5% CO2 in a humidified incubator (Heraeus HERAcell, Kendro Laboratory Products, Langenselbold, Germany).
For transfection with siRNA, HuH7, HepG2, or HeLa cells were seeded at a density of 2.0×10^4 cells/well in 96-well plates and transfected directly. Transfection of siRNA (30 nM for single dose screen) was carried out with lipofectamine 2000 (Invitrogen GmbH, Karlsruhe, Germany, cat. No. 11668-019) as described by the manufacturer.
24 hours after transfection HuH7 and HepG2 cells were lysed and PCSK9 mRNA levels were quantified with the Quantigene Explore Kit (Genosprectra, Dumbarton Circle Fremont, USA, cat. No. QG-000-02) according to the protocol. PCSK9 mRNA levels were normalized to GAP-DH mRNA. For each siRNA eight individual datapoints were collected. siRNA duplexes unrelated to PCSK9 gene were used as control. The activity of a given PCSK9 specific siRNA duplex was expressed as percent PCSK9 mRNA concentration in treated cells relative to PCSK9 mRNA concentration in cells treated with the control siRNA duplex.
Tables 1b and 2b (and FIG. 6A) summarize the results and provide examples of in vitro screens in different cell lines at different doses. Silencing of PCSK9 transcript was expressed as percentage of remaining transcript at a given dose.
Very active sequences are those that have less than 60% of transcript remaining after treatment with a dose less than or equal to 100 nM. Active sequences are those that have less than 90% transcript remaining after treatment with a high dose (100 nM).

Row | Substance | Mean percent remaining mRNA transcript at siRNA concentration/in cell type 30 nM/HepG2 | Mean percent remaining mRNA transcript at siRNA concentration/in cell type 100 nM/HepG2 | IC50 | Mean percent remaining mRNA transcript at siRNA concentration/in cell type 3 nM/HepG2
1 | AD-9526: PCSK9 siRNA (sense rUrCrCrCrArGrCrCrArGrGrArUrUrCrCrGrCrGdT*dT; antisense rCrGrCrGrGrArArUrCrCrUrGrGrCrUrGrGrGrAdT*dT) | 89% | 74% | – | –
2 | AD-9527: PCSK9 siRNA (sense rGrCrCrArArCrCrCrGrCrUrCrCrArCrUrArCrCdT*dT; antisense rGrGrUrArGrUrGrGrArGrCrGrGrGrUrUrGrGrCdT*dT) | 45% | – | – | –
3 | AD-9528: PCSK9 siRNA (sense rCrGrGrUrArCrCrGrGrGrCrGrGrArUrGrArArUdT*dT; antisense rArUrUrCrArUrCrCrGrCrCrCrGrGrUrArCrCrGdT*dT) | 113% | – | – | –
4 | AD-9529: PCSK9 siRNA (sense rGrGrGrArUrArCrCrUrCrArCrCrArArGrArUrCdT*dT; antisense rGrArUrCrUrUrGrGrUrGrArGrGrUrArUrCrCrCdT*dT) | 60% | – | – | –
5 | AD-9530: PCSK9 siRNA (sense rArCrCrGrGrGrCrGrGrArUrGrArArUrArCrCrAdT*dT; antisense rUrGrGrUrArUrUrCrArUrCrCrGrCrCrCrGrGrUdT*dT) | 75% | – | – | –
6 | AD-9531: PCSK9 siRNA (sense rArArArUrCrGrArGrGrGrCrArGrGrGrUrCrArUdT*dT; antisense rArUrGrArCrCrCrUrGrCrCrCrUrCrGrArUrUrUdT*dT) | 31% | – | 530 pM | 32%
7 | AD-9532: PCSK9 siRNA (sense rCrCrGrGrGrCrCrCrArCrArArCrGrCrUrUrUrUdT*dT; antisense rArArArArGrCrGrUrUrGrUrGrGrGrCrCrCrGrGdT*dT) | 100% | – | – | –
8 | AD-9533: PCSK9 siRNA (sense rGrArCrCrArCrCrGrGrGrArArArUrCrGrArGrGdT*dT; antisense rCrCrUrCrGrArUrUrUrCrCrCrGrGrUrGrGrUrCdT*dT) | 100% | – | – | –
9 | AD-9535: PCSK9 siRNA (sense rGrArGrUrGrArCrCrArCrCrGrGrGrArArArUrCdT*dT; antisense rGrArUrUrUrCrCrCrGrGrUrGrGrUrCrArCrUrCdT*dT) | 73% | 48% | – | –
10 | AD-9536: PCSK9 siRNA (sense rUrUrArUrUrCrGrGrArArArArGrCrCrArGrCrUdT*dT; antisense rArGrCrUrGrGrCrUrUrUrUrCrCrGrArArUrArAdT*dT) | 157% | – | – | –
11 | AD-9537: PCSK9 siRNA (sense rArCrGrGrUrArCrCrGrGrGrCrGrGrArUrGrArAdT*dT; antisense rUrUrCrArUrCrCrGrCrCrCrGrGrUrArCrCrGrUdT*dT) | 145% | – | – | –
12 | AD-9538: PCSK9 siRNA (sense rCrCrGrGrGrCrGrGrArUrGrArArUrArCrCrArGdT*dT; antisense rCrUrGrGrUrArUrUrCrArUrCrCrGrCrCrCrGrGdT*dT) | 80% | 79% | – | –
13 | AD-9539: PCSK9 siRNA (sense rGrGrUrGrGrArGrGrUrGrUrArUrCrUrCrCrUrAdT*dT; antisense rUrArGrGrArGrArUrArCrArCrCrUrCrCrArCrCdT*dT) | 63% | 56% | – | –
14 | AD-9540: PCSK9 siRNA (sense rArGrArGrUrGrArCrCrArCrCrGrGrGrArArArUdT*dT; antisense rArUrUrUrCrCrCrGrGrUrGrGrUrCrArCrUrCrUdT*dT) | 45% | – | – | –
15 | AD-9541: PCSK9 siRNA (sense rGrGrUrGrArGrGrGrUrGrUrCrUrArCrGrCrCrAdT*dT; antisense rUrGrGrCrGrUrArGrArCrArCrCrCrUrCrArCrCdT*dT) | 43% | – | – | –
16 | AD-9542: PCSK9 siRNA (sense rArUrCrGrArGrGrGrCrArGrGrGrUrCrArUrGrGdT*dT; antisense rCrCrArUrGrArCrCrCrUrGrCrCrCrUrCrGrArUdT*dT) | 160% | – | – | –
17 | AD-9543: PCSK9 siRNA (sense rCrGrCrGrUrGrCrUrCrArArCrUrGrCrCrArArGdT*dT; antisense rCrUrUrGrGrCrArGrUrUrGrArGrCrArCrGrCrGdT*dT) | 51% | – | – | –
18 | AD-9544: PCSK9 siRNA (sense rUrGrArGrGrArCrCrArGrCrGrGrGrUrArCrUrGdT*dT; antisense rCrArGrUrArCrCrCrGrCrUrGrGrUrCrCrUrCrAdT*dT) | 68% | – | – | –
19 | AD-9545: PCSK9 siRNA (sense rArGrUrCrArArGrGrArGrCrArUrGrGrArArUrCdT*dT; antisense rGrArUrUrCrCrArUrGrCrUrCrCrUrUrGrArCrUdT*dT) | 31% | – | – | 43%
20 | AD-9546: PCSK9 siRNA (sense rUrArGrCrCrUrUrGrCrGrUrUrCrCrGrArGrGrAdT*dT; antisense rUrCrCrUrCrGrGrArArCrGrCrArArGrGrCrUrAdT*dT) | 32% | – | – | –
21 | AD-9547: PCSK9 siRNA (sense rCrUrCrGrCrArGrUrCrArGrArGrCrGrCrArCrUdT*dT; antisense rArGrUrGrCrGrCrUrCrUrGrArCrUrGrCrGrArGdT*dT) | 31% | – | 200 pM | 29%
22 | AD-9548: PCSK9 siRNA (sense rGrCrArGrUrCrArGrArGrCrGrCrArCrUrGrCrCdT*dT; antisense rGrGrCrArGrUrGrCrGrCrUrCrUrGrArCrUrGrCdT*dT) | 54% | – | – | 60%
23 | AD-9549: PCSK9 siRNA (sense rGrGrGrCrCrCrArCrArArCrGrCrUrUrUrUrGrGdT*dT; antisense rCrCrArArArArGrCrGrUrUrGrUrGrGrGrCrCrCdT*dT) | 50% | – | – | –
24 | AD-9550: PCSK9 siRNA (sense rGrArGrGrGrUrGrUrCrUrArCrGrCrCrArUrUrGdT*dT; antisense rCrArArUrGrGrCrGrUrArGrArCrArCrCrCrUrCdT*dT) | 36% | – | – | –
25 | AD-9551: PCSK9 siRNA (sense UGGCGGGUGGGUACAGCCGTsT; antisense CGGCUGUACCCACCCGCCATsT; as printed in the source, key not given here) | 91% | – | – | –
26 | AD-9552: PCSK9 siRNA (sense rArGrGrArGrCrArUrGrGrArArUrCrCrCrGrGrCdT*dT; antisense rGrCrCrGrGrGrArUrUrCrCrArUrGrCrUrCrCrUdT*dT) | 80% | – | – | –
27 | AD-9553: PCSK9 siRNA (sense rUrCrUrArGrArCrCrUrGrUrUrUrUrGrCrUrUrUdT*dT; antisense rArArArGrCrArArArArCrArGrGrUrCrUrArGrAdT*dT) | 27% | – | 20 pM | 22%
28 | AD-9554: PCSK9 siRNA (sense rUrUrCrUrArGrArCrCrUrGrUrUrUrUrGrCrUrUdT*dT; antisense rArArGrCrArArArArCrArGrGrUrCrUrArGrArAdT*dT) | 23% | – | – | 24%
29 | AD-9555: PCSK9 siRNA (sense rGrUrCrArGrGrArGrCrCrGrGrGrArCrGrUrCrAdT*dT; antisense rUrGrArCrGrUrCrCrCrGrGrCrUrCrCrUrGrArCdT*dT) | 34% | – | – | –
30 | AD-9556: PCSK9 siRNA (sense rUrGrGrUrGrGrArGrGrUrGrUrArUrCrUrCrCrUdT*dT; antisense rArGrGrArGrArUrArCrArCrCrUrCrCrArCrCrAdT*dT) | 46% | – | – | –

— US20120016009A1, “Optimized Methods For Delivery Of DSRNA Targeting The PCSK9 Gene” (priority 2008, published 2012)
